From BindingDB's records for doi:10.1021/acs.jmedchem.5b02042 (University of South Florida, 2016) come the findings set out here.

This experiment addresses Stromal cell-derived factor 1 (Homo sapiens, UniProt P48061). Put plainly: Binding affinity to His6-SUMO fusion tagged wild type human [U-15N]CXCL12 expressed in Escherichia coli by 2D 1H-15N HMQC NMR spectroscopy.

Sequence of Stromal cell-derived factor 1 (P48061 whole entry, the tested form may be a part): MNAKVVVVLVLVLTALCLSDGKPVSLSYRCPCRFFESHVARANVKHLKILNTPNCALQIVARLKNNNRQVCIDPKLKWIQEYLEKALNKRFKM

In general, Kd refers to the equilibrium constant for the complex coming apart. Read a low Kd as higher affinity. `CCCOc1ccc(C(Nc2ccc(F)cc2)P(=O)(O)O)cc1` (configuration not stated) returned an equilibrium dissociation constant (Kd) of 1100 µM.

The molecule `O=C(O)CC1c2ccccc2CCN1C(=O)Nc1cccc(F)c1` (configuration not stated) gave an equilibrium dissociation constant (Kd) of 4100 µM.
